Laboratory results: BindingDB's records for patent WO2022104345 (Genentech, 2022)

Target: von Hippel-Lindau disease tumor suppressor (Homo sapiens, UniProt P40337)
Assay: VHL HEK-293 BRET Assay
Description: The VHL NanoBRET Target Engagement Assay analyzes the apparent affinity of test compounds for VHL in cells by competitive displacement of a VHL NanoBRET tracer reversibly bound to a NanoLuc VHL fusion protein stably expressed in the cells.[0488] Test compounds were transferred to the assay plate (384 Well White Non-Binding Corning Assay Plates (Corning-3574)) using an Echo 555 Liquid Handler (Labcyte) in 2.5 nL increments and, as appropriate, intermediate stock concentrations of compounds, in order to prepare a titration series.50 nL of control compound (10mM; parental unlabeled VHL antagonist; see structure below) and 50 nL of DMSO (negative control) were dispensed into the appropriate control wells. DMSO was backfilled to a final volume of 50 nL as required.50nl per well of 1 mM VHL NanoBRET Tracer in DMSO (NanoBRETTM Tracer-PEG2-590 (see structure below)) was transferred into each well using an Echo 555 (ultimately yielding a final concentration of 1uM). HEK 293 RT VHL-NanoLuc stable cells were cultured in DMEM High Glucose with Pyruvate, 10% fetal bovine serum, 2 mg/mL of Geneticin Selective Antibiotic (50 mg/ml) and 2 mM HEPES (1 M). Cells were seeded in Opti-MEM (Life Technologies-11058-021), 1.7 × 10^5 cells/mL, 40 ^l per well into the assay plate, centrifuged at 500 rpm for 30 seconds and incubated for 2 hours. Max Signal control wells consisted of DMSO only treated wells. Minimum Signal control wells contained of 10 uM parental unlabeled VHL antagonist (control compound see structure below). 3X Complete Substrate plus Inhibitor Solution was prepared in Opti-MEM (consists of a 1:166 dilution of NanoBRET Nano-Glo Substrate plus a 1:500 dilution of Extracellular NanoLuc Inhibitor in Opti-MEM), and 20 ul was dispensed into each well of the 384-well plate and centrifuged at 1000 rpm for 1 minute, then incubated for 2 minutes at room temperature. Background Signal control wells were prepared without tracer for background correction steps.[0489] Plates were read using a PerkinElmer Envision Reader (model 2104-0020) equipped with Luminescence option (Mirror: BRET2 Enh (PE Barcode 659), Emission Filter: Omega 610LP (Barcode 504), 2nd Emission Filter: Umbelliferone 460 (Barcode 207), Measurement height: 6.5 mm, Measurement time: 1s). The raw BRET ratio values were calculated by dividing the acceptor emission value (610 nm) by the donor emission value (460nm) for each sample. To correct for background, the BRET ratio in the absence of tracer (average of no-tracer control samples) was subtracted from the BRET ratio of each sample. Raw BRET units were converted to milliBRET units (mBU) by multiplying each raw BRET value by 1,000. The normalized NanoBRET signal was calculated relative to the Max Signal control wells (DMSO treated control wells) and the Minimum Signal control wells. Percentage inhibition was calculated relative to the Minimum Signal control and Maximum Signal control wells. IC50 values were derived by four parameter curve fitting using the Robust method.

Sequence of von Hippel-Lindau disease tumor suppressor (P40337 whole entry): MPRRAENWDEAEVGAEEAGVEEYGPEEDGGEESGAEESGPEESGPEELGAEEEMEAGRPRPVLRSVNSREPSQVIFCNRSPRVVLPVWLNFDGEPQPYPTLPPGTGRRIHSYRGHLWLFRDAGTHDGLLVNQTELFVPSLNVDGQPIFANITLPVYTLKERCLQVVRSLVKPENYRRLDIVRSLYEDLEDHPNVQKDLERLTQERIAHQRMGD

Structure (SMILES)	IC50 [µM]
CNC(=O)[C@@H]1C[C@@H](O)CN1C(=O)[C@H](C(C)C)n1cc(C2CC2)nn1 [WO2022104345, Compound 11]	3
CNC(=O)[C@@H]1C[C@@H](OC(C)=O)CN1C(=O)[C@H](n1cc(C2CC2)nn1)C(C)(C)C [WO2022104345, Compound 13]	62.8
CNC(=O)[C@@H]1C[C@@H](O)CN1C(=O)[C@H](C(C)C)n1cc(C2(C)CC2)nn1 [WO2022104345, Compound 21]	1.21
CNC(=O)[C@@H]1C[C@@H](O)CN1C(=O)[C@@H](C(C)C)n1cc(C2CC2)nn1 [WO2022104345, Compound 12]	> 100
CNC(=O)[C@@H]1C[C@@H](O)CN1C(=O)C(=C(C)C)n1cc(C2CC2)nn1 [WO2022104345, Compound 32]	4.75

Now from value to molecule:

IC50 [µM]	Structure (SMILES)
> 100	CNC(=O)[C@@H]1C[C@@H](O)CN1C(=O)[C@H](C1CCNCC1)n1cc(C2CC2)nn1 [WO2022104345, Example S7]
> 100	CNC(=O)[C@@H]1C[C@@H](O)CN1C(=O)[C@H](C1CCN(C)CC1)n1cc(C2CC2)nn1 [WO2022104345, Example S8]
0.9	CNC(=O)[C@@H]1C[C@@H](O)CN1C(=O)[C@H](C(C)C)n1cc(-c2cncs2)nn1 [WO2022104345, Compound 41]
